In patent publication US20250059171A1 (Hoffmann-La Roche Inc., priority 2021, published 2025) one finds IC50 data, which are given here for 15 molecules.

For test [1], the target named is SARS-CoV-2 3CLpro (Severe acute respiratory syndrome coronavirus 2, UniProt P0DTD1). Briefly: biochemical.
Test [2] addresses HCoV-229E 3CLpro (Human coronavirus 229E, UniProt P0C6X1). Briefly: HCoV-229E 3CLpro inhibition assay (FRET). The format is biochemical.
Test [3] addresses MERS-CoV 3CLpro (Middle East respiratory syndrome-related coronavirus, UniProt K9N7C7). Briefly: biochemical.
The target of test [4] is SARS-CoV 3CLpro (Severe acute respiratory syndrome coronavirus, UniProt P0C6X7). In words: biochemical.

Read-outs that look alike come from different tables or passages of the source.

Chain of HCoV-229E 3CLpro (P0C6X1 2966-3267): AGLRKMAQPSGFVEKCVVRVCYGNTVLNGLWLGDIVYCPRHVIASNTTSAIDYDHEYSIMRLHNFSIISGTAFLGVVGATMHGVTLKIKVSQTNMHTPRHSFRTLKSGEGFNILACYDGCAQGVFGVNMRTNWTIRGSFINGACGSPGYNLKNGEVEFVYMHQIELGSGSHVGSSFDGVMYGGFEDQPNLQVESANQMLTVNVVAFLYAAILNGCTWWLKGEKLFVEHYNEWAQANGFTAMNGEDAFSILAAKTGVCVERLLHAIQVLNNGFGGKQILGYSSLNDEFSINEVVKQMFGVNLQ
Chain of MERS-CoV 3CLpro (K9N7C7 3248-3553): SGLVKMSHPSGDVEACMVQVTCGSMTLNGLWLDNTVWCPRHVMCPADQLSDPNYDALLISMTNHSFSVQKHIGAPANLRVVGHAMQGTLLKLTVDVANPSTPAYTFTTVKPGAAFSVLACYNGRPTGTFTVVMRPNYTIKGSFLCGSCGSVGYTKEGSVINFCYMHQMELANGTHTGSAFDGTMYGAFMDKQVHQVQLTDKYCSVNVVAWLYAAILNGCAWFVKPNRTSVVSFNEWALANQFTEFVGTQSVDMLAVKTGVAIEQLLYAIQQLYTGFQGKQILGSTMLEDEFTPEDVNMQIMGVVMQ

For `CCC(C)(C)[C@H](NC(=O)C1(F)CC1)C(=O)N1C[C@H]2[C@@H]([C@H]1C(=O)NN(C[C@@H]1CCNC1=O)C(=O)[C@H](F)Cl)C2(C)C` [Example 143, N-[(1S)-1-[(1R,2S,5S)-2-[[[(2R)-2-chloro-2-fluoro-acetyl]-[[(3S)-2-oxopyrrolidin-3-yl]methyl]amino]carbamoyl]-6,6-dimethyl-3-azabicyclo[3.1.0]hexane-3-carbonyl]-2,2-dimethyl-butyl]-1-fluoro-cyclopropanecarboxamide], the IC50 (as a rule, the point on the concentration scale where inhibition reaches its midpoint) was found to be 0.008 µM in test [1], 0.028 µM in test [2], 0.086 µM in test [3] and 0.013 µM in test [4].
Take `CCC(C)(C)[C@H](NC(=O)C(F)F)C(=O)N1C[C@H]2[C@@H]([C@H]1C(=O)NN(C[C@@H]1CCNC1=O)C(=O)[C@H](F)Cl)C2(C)C` [Example 144, N-[(1S)-1-[(1R,2S,5S)-2-[[[(2R)-2-chloro-2-fluoro-acetyl]-[[(3S)-2-oxopyrrolidin-3-yl]methyl]amino]carbamoyl]-6,6-dimethyl-3-azabicyclo[3.1.0]hexane-3-carbonyl]-2,2-dimethyl-butyl]-2,2-difluoro-acetamide]: the IC50 in test [1] was 0.011 µM; in test [2] it was 0.033 µM; in test [3], 0.112 µM; in test [4], 0.015 µM.
Turning to `CCC(C)(C)[C@H](NC(=O)C1(F)CC1)C(=O)N1C[C@H]2[C@@H]([C@H]1C(=O)NN(C[C@@H]1CCNC1=O)C(=O)[C@@H](F)Cl)C2(C)C` [Example 145, N-[(1S)-1-[(1R,2S,5S)-2-[[[(2S)-2-chloro-2-fluoro-acetyl]-[[(3S)-2-oxopyrrolidin-3-yl]methyl]amino]carbamoyl]-6,6-dimethyl-3-azabicyclo[3.1.0]hexane-3-carbonyl]-2,2-dimethyl-butyl]-1-fluoro-cyclopropanecarboxamide], the IC50 amounted to 0.018 µM in test [1], 0.077 µM in test [2], 0.152 µM in test [3] and 0.027 µM in test [4].
With `CCC(C)(C)[C@H](NC(=O)C1CC1)C(=O)N1C[C@H]2[C@@H]([C@H]1C(=O)NN(C[C@@H]1CCNC1=O)C(=O)[C@@H](F)Cl)C2(C)C` [Example 147, N-[(1S)-1-[(1R,2S,5S)-2-[[[(2S)-2-chloro-2-fluoro-acetyl]-[[(3S)-2-oxopyrrolidin-3-yl]methyl]amino]carbamoyl]-6,6-dimethyl-3-azabicyclo[3.1.0]hexane-3-carbonyl]-2,2-dimethyl-butyl]cyclopropanecarboxamide], the IC50 stood at 0.012 µM in test [1], 0.04 µM in test [2], 0.089 µM in test [3] and 0.016 µM in test [4].
Turning to `CCC(C)(C)[C@H](NC(=O)C(F)F)C(=O)N1C[C@H]2[C@@H]([C@H]1C(=O)NN(C[C@@H]1CCNC1=O)C(=O)[C@@H](F)Cl)C2(C)C` [Example 148, N-[(1S)-1-[(1R,2S,5S)-2-[[[(2S)-2-chloro-2-fluoro-acetyl]-[[(3S)-2-oxopyrrolidin-3-yl]methyl]amino]carbamoyl]-6,6-dimethyl-3-azabicyclo[3.1.0]hexane-3-carbonyl]-2,2-dimethyl-butyl]-2,2-difluoro-acetamide], the 50% inhibitory concentration (IC50) in test [1] was determined as 0.013 µM; in test [2], 0.03 µM; in test [3], 0.13 µM; in test [4] it was 0.02 µM.
With `CCC(C)(C)[C@H](NC(=O)C1(F)CC1)C(=O)N1C[C@@H]2CCC[C@@H]2[C@H]1C(=O)NN(C[C@@H]1CCNC1=O)C(=O)[C@H](F)Cl` [Example 149, N-[(1S)-1-[(3S,3aS,6aR)-3-[[[(2R)-2-chloro-2-fluoro-acetyl]-[[(3S)-2-oxopyrrolidin-3-yl]methyl]amino]carbamoyl]-3,3a,4,5,6,6a-hexahydro-1H-cyclopenta[c]pyrrole-2-carbonyl]-2,2-dimethyl-butyl]-1-fluoro-cyclopropanecarboxamide], the IC50 amounted to 0.006 µM in test [1] (read-out: IC50 in SARS-CoV-2 3CLpro assay), 0.045 µM in test [2], 0.139 µM in test [3] and 0.015 µM in test [4].
`CCC(C)(C)[C@H](NC(=O)[C@@H]1CC1(F)F)C(=O)N1C[C@@H]2CCC[C@@H]2[C@H]1C(=O)NN(C[C@@H]1CCNC1=O)C(=O)[C@H](F)Cl` [Example 150, (1S)—N-[(1S)-1-[(3S,3aS,6aR)-3-[[[(2R)-2-chloro-2-fluoro-acetyl]-[[(3S)-2-oxopyrrolidin-3-yl]methyl]amino]carbamoyl]-3,3a,4,5,6,6a-hexahydro-1H-cyclopenta[c]pyrrole-2-carbonyl]-2,2-dimethyl-butyl]-2,2-difluoro-cyclopropanecarboxamide]: the IC50 in test [1] worked out at 0.011 µM; in test [2] it was 0.033 µM; in test [3] it was 0.063 µM; in test [4] it was 0.016 µM.
Turning to `CCC(C)(C)[C@H](NC(=O)C(F)F)C(=O)N1C[C@@H]2CCC[C@@H]2[C@H]1C(=O)NN(C[C@@H]1CCNC1=O)C(=O)[C@H](F)Cl` [Example 151, N-[(1S)-1-[(3S,3aS,6aR)-3-[[[(2R)-2-chloro-2-fluoro-acetyl]-[[(3S)-2-oxopyrrolidin-3-yl]methyl]amino]carbamoyl]-3,3a,4,5,6,6a-hexahydro-1H-cyclopenta[c]pyrrole-2-carbonyl]-2,2-dimethyl-butyl]-2,2-difluoro-acetamide], the IC50 was 0.013 µM in test [1], 0.031 µM in test [2], 0.067 µM in test [3] and 0.014 µM in test [4].
As to `CCC(C)(C)[C@H](NC(=O)[C@@H]1CC1(F)F)C(=O)N1C[C@@H]2CCC[C@@H]2[C@H]1C(=O)NN(C[C@@H]1CCNC1=O)C(=O)[C@@H](F)Cl` [Example 152, (1S)—N-[(1S)-1-[(3S,3aS,6aR)-3-[[[(2S)-2-chloro-2-fluoro-acetyl]-[[(3S)-2-oxopyrrolidin-3-yl]methyl]amino]carbamoyl]-3,3a,4,5,6,6a-hexahydro-1H-cyclopenta[c]pyrrole-2-carbonyl]-2,2-dimethyl-butyl]-2,2-difluoro-cyclopropanecarboxamide], the IC50 was 0.015 µM in test [1], 0.028 µM in test [2], 0.099 µM in test [3] and 0.02 µM in test [4].
Turning to `CCC(C)(C)[C@H](NC(=O)C(F)F)C(=O)N1C[C@@H]2CCC[C@@H]2[C@H]1C(=O)NN(C[C@@H]1CCNC1=O)C(=O)[C@@H](F)Cl` [Example 153, N-[(1S)-1-[(3S,3aS,6aR)-3-[[[(2S)-2-chloro-2-fluoro-acetyl]-[[(3S)-2-oxopyrrolidin-3-yl]methyl]amino]carbamoyl]-3,3a,4,5,6,6a-hexahydro-1H-cyclopenta[c]pyrrole-2-carbonyl]-2,2-dimethyl-butyl]-2,2-difluoro-acetamide], the IC50 in test [1] worked out at 0.012 µM; in test [2], 0.043 µM; in test [3], 0.25 µM; in test [4], 0.015 µM.
The corresponding values for `CCC(C)(C)[C@H](NC(=O)C1(F)CC1)C(=O)N1CC(C)(C)C[C@H]1C(=O)NN(C[C@@H]1CCNC1=O)C(=O)[C@H](F)Cl` [Example 154, N-[(1S)-1-[(2S)-2-[[[(2R)-2-chloro-2-fluoro-acetyl]-[[(3S)-2-oxopyrrolidin-3-yl]methyl]amino]carbamoyl]-4,4-dimethyl-pyrrolidine-1-carbonyl]-2,2-dimethyl-butyl]-1-fluoro-cyclopropanecarboxamide] are 0.017 µM, 0.052 µM, 0.305 µM and 0.021 µM.
On to `CC(C)(C)[C@H](NC(=O)C(F)(F)F)C(=O)N1CCC(C)(C)[C@H]1C(=O)NN(C[C@@H]1CCNC1=O)C(=O)[C@H](F)Cl` [Example 155a, N-[(1S)-1-[(2S)-2-[[[(2R)-2-chloro-2-fluoro-acetyl]-[[(3S)-2-oxopyrrolidin-3-yl]methyl]amino]carbamoyl]-3,3-dimethyl-pyrrolidine-1-carbonyl]-2,2-dimethyl-propyl]-2,2,2-trifluoro-acetamide], for which the IC50 turned out to be 0.024 µM in test [1], 0.739 µM in test [2], 1.33 µM in test [3] and 0.028 µM in test [4].
Take `CC(C)(C)[C@H](NC(=O)C(F)(F)F)C(=O)N1CCC(C)(C)[C@@H]1C(=O)NN(C[C@@H]1CCNC1=O)C(=O)[C@H](F)Cl` [Example 155b, N-[(1S)-1-[(2R)-2-[[[(2R)-2-chloro-2-fluoro-acetyl]-[[(3S)-2-oxopyrrolidin-3-yl]methyl]amino]carbamoyl]-3,3-dimethyl-pyrrolidine-1-carbonyl]-2,2-dimethyl-propyl]-2,2,2-trifluoro-acetamide]: the IC50 in test [1] is 1.57 µM; in test [2], greater than 10 µM; in test [3], greater than 10 µM; in test [4] it was 2.44 µM.
Take `CC1(C)[C@@H]2[C@@H](C(=O)NN(C[C@@H]3CCNC3=O)C(=O)[C@H](F)Cl)N(C(=O)[C@@H](NC(=O)C3(F)CC3)C3CCC3)C[C@@H]21` [Example 156, N-[(1S)-2-[(1R,2S,5S)-2-[[[(2R)-2-chloro-2-fluoro-acetyl]-[[(3S)-2-oxopyrrolidin-3-yl]methyl]amino]carbamoyl]-6,6-dimethyl-3-azabicyclo[3.1.0]hexan-3-yl]-1-cyclobutyl-2-oxo-ethyl]-1-fluoro-cyclopropanecarboxamide]: the IC50 is 0.014 µM in test [1], 0.032 µM in test [2], 0.106 µM in test [3] and 0.028 µM in test [4].
`CC1(C)[C@@H]2[C@@H](C(=O)NN(C[C@@H]3CCNC3=O)C(=O)[C@@H](F)Cl)N(C(=O)[C@@H](NC(=O)C3(F)CC3)C3CCC3)C[C@@H]21` [Example 157, N-[(1S)-2-[(1R,2S,5S)-2-[[[(2S)-2-chloro-2-fluoro-acetyl]-[[(3S)-2-oxopyrrolidin-3-yl]methyl]amino]carbamoyl]-6,6-dimethyl-3-azabicyclo[3.1.0]hexan-3-yl]-1-cyclobutyl-2-oxo-ethyl]-1-fluoro-cyclopropanecarboxamide]: the IC50 stood at 0.044 µM in test [1], 0.06 µM in test [2], 0.149 µM in test [3] and 0.058 µM in test [4].
